Measured values reported in US20080207738A1, “DRUG COMBINATIONS TO TREAT DRUG RESISTANT TUMORS” (priority 2007, published 2008).

What was measured:
[1] = test system: CaOV-3 human ovarian cancer cell line; assay: Cell viability, CaOV-3 cells; details: Caov-3, read-out: decrease in viability / inhibition
Source text: For the determination of relative number of viable cells before and after treatments, in most cases the MTT assay was used. This calorimetric assay is based on the ability of living cells, but not dead cells, to reduce 3-(4, 5-dimethyl thiazol-2-yl)-2, 5-diphenyltetrazolium bromide [Carmichael, J, De Graff, W. G., Gazdar, A. F., Minna, J. D. and Mitchell, J. B. (1987), “Evaluation oftetrazolium-based semiautomated calorimetric assay: Assessment of chemosensitivity testing,” Cancer Res., 47, 936-942]. For this assay, cells were plated in 96-well plates (10,000-30,000 cells in case of cultured cells, 100,000 cells in case of healthy lymphocytes, and 200,000 cells in case of chronic lymphocytic leukemia or non-Hodgkin lymphocytes) in the respective incubation media. After a 24-h resting period, the cells were treated with the test agents and then incubated (in CO2 incubator under humidified atmosphere) for 72 hours (final incubation volume, 150 μl). The MTT assay was performed both with the untreated and treated cell cultures at the conclusion of the incubation. Often, the MTT assay also was performed at the start of treatments to allow assessment of proliferation rates in the control and treated cell cultures. All data presented are the average of 4 incubations (in 4 separate wells) with the same cell population. […]

[2] = test system: parent L5178 mouse T-cell lymphoma cells; assay: MTT cell viability, parent L5178 cells; details: Mus musculus, L5178, 72 h, read-out: Inhibition (%) of viability
Source text: For the determination of relative number of viable cells before and after treatments, in most cases the MTT assay was used. This calorimetric assay is based on the ability of living cells, but not dead cells, to reduce 3-(4, 5-dimethyl thiazol-2-yl)-2, 5-diphenyltetrazolium bromide [Carmichael, J, De Graff, W. G., Gazdar, A. F., Minna, J. D. and Mitchell, J. B. (1987), “Evaluation oftetrazolium-based semiautomated calorimetric assay: Assessment of chemosensitivity testing,” Cancer Res., 47, 936-942]. For this assay, cells were plated in 96-well plates (10,000-30,000 cells in case of cultured cells, 100,000 cells in case of healthy lymphocytes, and 200,000 cells in case of chronic lymphocytic leukemia or non-Hodgkin lymphocytes) in the respective incubation media. After a 24-h resting period, the cells were treated with the test agents and then incubated (in CO2 incubator under humidified atmosphere) for 72 hours (final incubation volume, 150 μl). The MTT assay was performed both with the untreated and treated cell cultures at the conclusion of the incubation. Often, the MTT assay also was performed at the start of treatments to allow assessment of proliferation rates in the control and treated cell cultures. All data presented are the average of 4 incubations (in 4 separate wells) with the same cell population.
Parent L5178 cells were seeded at 10,000 cells per well in 96-well plates and then incubated for 72 hours in the absence or presence of CCcompound104 (1 or 5 μg/ml) and various concentrations of CCcompound26 as indicated in Table 5.
Epirubicin, like doxorubicin and other antracyclins, is an MDR1 substrate. The goal of this experiment was to use epirubicin as a model compound to determine if in L5178/MDR1 cells CCcompound104 also can enhance the effects of MDR1 substrate anti-cancer agents other than CCcompound26 and other thioxanthene or thioxanthone CC compounds. The parent and MDR1 expressing cells were seeded at 30,000 cells per well in 96-well microplates and after a 24-h resting period treated with increasing concentrations of epirubicin n in the absence or presence of 5 μg/ml of CCcompound104 for 72 hours.

Work on `C=CC[N+](CC)(CC)CC/C=C1/c2ccccc2Sc2ccc(C)cc21.[Br-]` [CCcompound26, N,N-Diethyl-N-allyl-3-(2-methyl-9H-thioxanthen-9-ylidene)-propan-1-aminiumbromide] yielded a cytotoxicity at 12.5 µM [1] of under 15%, a cytotoxicity at 25 µM [1] of under 45% and a cytotoxicity at 1.56 µM [2] of 55%. It also gave a cytotoxicity at 3.12 µM [2] of 68% and a cytotoxicity at 6.25 µM [2] of 80%.
